Experimental data as given in publication PMC8119466, “A screen of FDA-approved drugs identifies inhibitors of protein tyrosine phosphatase 4A3 (PTP4A3 or PRL-3)” (Scientific Reports, 2021).
Counter-ions that a name gives are not always drawn.

Assays:
Format in all cases: biochemical
Conditions in all cases: FDA-approved drug screen
recombinant PRL-3 = molecular target: T1, recombinant PRL-3 (Homo sapiens, UniProt O75365); assay: In vitro phosphatase assay (DiFMUP hydrolysis), PRL-3; also: test concentration or dose not given here
T1 construct: 6xHis (N, cleaved yes); made in house; host or cells: E. coli One Shot BL21 Star

recombinant PRL-1 = molecular target: T2, recombinant PRL-1 (Homo sapiens, UniProt Q93096); assay: In vitro phosphatase assay (DiFMUP hydrolysis), PRL-1; also: test concentration or dose not given here
T2 construct: 6xHis (N, cleaved yes); made in house; host or cells: E. coli One Shot BL21 Star
T2 sequence (Q93096 1-173): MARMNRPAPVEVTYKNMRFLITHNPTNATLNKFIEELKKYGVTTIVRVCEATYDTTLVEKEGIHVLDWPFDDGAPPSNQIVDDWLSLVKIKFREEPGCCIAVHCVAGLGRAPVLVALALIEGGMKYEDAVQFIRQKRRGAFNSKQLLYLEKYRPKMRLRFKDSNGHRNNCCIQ

recombinant PRL-2 = molecular target: T3, recombinant PRL-2 (Homo sapiens, UniProt Q12974); assay: In vitro phosphatase assay (DiFMUP hydrolysis), PRL-2;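 also: PRL-2 activity read as DiFMUP hydrolysis after 20 min at room temperature with drug, enzyme first pre-reduced at 4 °C for 20 min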
T3 construct: 6xHis (N, cleaved yes); made in house; host or cells: E. coli One Shot BL21 Star
T3 sequence (Q12974 1-167): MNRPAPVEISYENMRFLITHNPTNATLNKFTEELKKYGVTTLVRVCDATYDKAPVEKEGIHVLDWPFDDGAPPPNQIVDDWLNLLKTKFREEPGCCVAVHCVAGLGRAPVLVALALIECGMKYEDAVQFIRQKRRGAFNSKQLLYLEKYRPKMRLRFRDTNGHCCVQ

T1 sequence (O75365 whole entry): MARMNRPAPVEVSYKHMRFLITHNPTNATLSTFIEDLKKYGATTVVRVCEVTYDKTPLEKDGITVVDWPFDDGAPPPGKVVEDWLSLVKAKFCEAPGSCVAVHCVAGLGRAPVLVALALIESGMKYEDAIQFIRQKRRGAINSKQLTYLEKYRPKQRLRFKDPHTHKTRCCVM

SMILES | % Phosphatase Activity (compared to DMSO) PRL-3 (recombinant PRL-3; compared to DMSO) | % Phosphatase Activity (compared to DMSO) PRL-1 (recombinant PRL-1; compared to DMSO) | % Phosphatase Activity (compared to DMSO) PRL-2 (recombinant PRL-2; compared to DMSO) | % Phosphatase Activity (compared to DMSO) PRL-3 (recombinant PRL-3; activity compared to DMSO) | % Phosphatase Activity (compared to DMSO) PRL-1 (recombinant PRL-1; activity compared to DMSO) | % Phosphatase Activity (compared to DMSO) PRL-2 (recombinant PRL-2; activity compared to DMSO)
C[C@@H]1C[C@H]2[C@@H]3CCC4=CC(=O)C=C[C@]4(C)[C@@]3(F)[C@@H](O)C[C@]2(C)[C@@]1(O)C(=O)CO [Dexamethasone (DHAP)] | 66% | 99% | 94% |  |  | 
CC[C@H](C)[C@H]1O[C@]2(CC[C@@H]1C)C[C@@H]1C[C@@H](C/C=C(\C)[C@@H](O[C@H]3C[C@H](OC)[C@@H](O[C@H]4C[C@H](OC)[C@@H](O)[C@H](C)O4)[C@H](C)O3)[C@@H](C)/C=C/C=C3\CO[C@@H]4[C@H](O)C(C)=C[C@@H](C(=O)O1)[C@]34O)O2 [Ivermectin] | 69% | 91% | 102% |  |  | 
C[n+]1ccccc1/C=N/O.[Cl-] [Pralidoxime (chloride)] | 105% | 99% | 91% |  |  | 
CC(C)(C)NCC(O)c1ccc(O)c(CO)c1.CC(C)(C)NCC(O)c1ccc(O)c(CO)c1.O=S(=O)(O)O (stereo not drawn) [Salbutamol Sulfate] | 88% | 94% | 90% |  |  | 
O=C(CCCN1CCC(O)(c2ccc(Cl)cc2)CC1)c1ccc(F)cc1 [Haloperidol] | 93% | 93% | 100% |  |  | 
C=CC1=C(C(=O)O)N2C(=O)[C@@H](NC(=O)/C(=N\OCC(=O)O)c3csc(N)n3)[C@H]2SC1 [Cefixime] | 90% | 89% | 90% |  |  | 
O=c1[nH]c(=O)n([C@H]2C[C@H](O)[C@@H](CO)O2)cc1C(F)(F)F [Trifluridine] |  |  |  | 91% | 89% | 101%
CNC(=O)[C@@H](NC(=O)[C@H](CC(C)C)[C@H](O)C(=O)NO)C(C)(C)C [Marimastat(BB-2516)] | 91% | 85% | 77% |  |  | 
CCN(CC)CCNC(=O)c1c(C)[nH]c(/C=C2\C(=O)Nc3ccc(F)cc32)c1C [Sunitinib Malate] |  |  |  | 65% | 80% | 76%
COCCCN1CCC(NC(=O)c2cc(Cl)c(N)c3c2OCC3)CC1.O=C(O)CCC(=O)O [Prucalopride Succinat] | 85% | 76% | 77% |  |  | 
O=c1n(CCCN2CCN(c3cccc(Cl)c3)CC2)nc2ccccn12 [Trazodone HCl] |  |  |  | 93% | 146% | 142%
COc1ccccc1Oc1c(NS(=O)(=O)c2ccc(C(C)(C)C)cc2)nc(-c2ncccn2)nc1OCCO [Bosentan] | 71% | 83% | 84% |  |  | 
CCCC(=O)O[C@]1(C(=O)COC(C)=O)CC[C@H]2[C@@H]3C[C@H](F)C4=CC(=O)C=C[C@]4(C)[C@@]3(F)[C@@H](O)C[C@@]21C [Difluprednate] | 67% | 82% | 76% |  |  | 
CN1C(C(=O)Nc2ccccn2)=C(O)c2sc(Cl)cc2S1(=O)=O [Lornoxicam] | 81% | 73% | 84% |  |  | 
CCN[C@@H]1C[C@H](N)[C@@H](O[C@H]2OC(CN)=CC[C@H]2N)[C@H](O)[C@H]1O[C@H]1OC[C@](C)(O)[C@H](NC)[C@H]1O.CCN[C@@H]1C[C@H](N)[C@@H](O[C@H]2OC(CN)=CC[C@H]2N)[C@H](O)[C@H]1O[C@H]1OC[C@](C)(O)[C@H](NC)[C@H]1O.O=S(=O)(O)O.O=S(=O)(O)O.O=S(=O)(O)O.O=S(=O)(O)O.O=S(=O)(O)O [Netilmicin Sulfate] | 111% | 86% | 110% |  |  | 
